Results: patent US8530493B2, “Indolopyridines as Eg5 kinesin modulators” (4SC AG, priority 2006, dated 2013)

System: RKO p21 uninduced (proliferating) colon adenocarcinoma cells
Experiment: Alamar Blue cell viability assay, RKO p21 uninduced (proliferating)
Type: cell-based
Conditions: Homo sapiens, Table B3, anti-proliferative/cytotoxic activity, 72 hours, read-out: −log EC50 RKO p21 uninduced (proliferating) (converted)
Outline: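 Viability read by Alamar Blue fluorescence (ex 544, em 590 nm), normalised to untreated wells, after 72 h, 37° C, 5% CO2 compound exposure in triplicate. Cells were uninduced (no Ponasterone A), proliferating RKO colon carcinoma p27 or p21 subclones in DMEM with 10% FCS; values are −log EC50 (mol/l).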

SMILES | EC50 [nM]
C[C@@]12Cc3c([nH]c4ccc(Br)cc34)[C@@H](c3cccc(O)c3)N1C(=O)N(CCN1CCOCC1)C2=O (racemic) [Example 388, (3aSR,10RS)-6-Bromo-10-(3-hydroxy-phenyl)-3a-methyl-2-(2-morpholin-4-yl-ethyl)-3a,4,9,10-tetrahydro-2,9,10a-triaza-cyclopenta[b]fluorene-1,3-dione] | 39.8 to 251
COc1cc2c3c([nH]c2cc1F)[C@@H](c1cccc(O)c1)N1C(=O)N(CCN2CCN(C)CC2)C(=O)[C@]1(C)C3 (racemic) [Example 266, (3aSR,10RS)-7-Fluoro-10-(3-hydroxy-phenyl)-6-methoxy-3a-methyl-2-[2-(4-methyl-piperazin-1-yl)-ethyl]-3a,4,9,10-tetrahydro-2,9,10a-triaza-cyclopenta[b]fluorene-1,3-dione] | 39.8 to 251
CCOc1ccc2[nH]c3c(c2c1)C[C@@]1(C)C(=O)N(CCNCC(C)C)C(=O)N1[C@@H]3c1cccc(O)c1 (racemic) [Example 153, (3aSR,10RS)-6-Ethoxy-10-(3-hydroxy-phenyl)-2-(2-isobutylamino-ethyl)-3a-methyl-3a,4,9,10-tetrahydro-2,9,10a-triaza-cyclopenta[b]fluorene-1,3-dione] | ≤ 39.8
CCNCCN1C(=O)N2[C@H](c3cccc(O)c3)c3[nH]c4ccc(OCC)cc4c3C[C@@]2(C)C1=O (racemic) [Example 296, (3aSR,10RS)-6-Ethoxy-2-(2-ethylamino-ethyl)-10-(3-hydroxy-phenyl)-3a-methyl-3a,4,9,10-tetrahydro-2,9,10a-triaza-cyclopenta[b]fluorene-1,3-dione] | ≤ 39.8
C[C@@]12Cc3c([nH]c4ccc(OC(F)F)cc34)[C@@H](c3cccc(O)c3)N1C(=O)N(CCN1CCCCCC1)C2=O (racemic) [Example 282, (3aSR,10RS)-2-(2-Azepan-1-yl-ethyl)-6-(1,1-difluoro-methoxy)-10-(3-hydroxy-phenyl)-3a-methyl-3a,4,9,10-tetrahydro-2,9,10a-triaza-cyclopenta[b]fluorene-1,3-dione] | 39.8 to 251
CCOc1ccc2[nH]c3c(c2c1)C[C@@]1(C)C(=O)N(CCCN(CC)CCO)C(=O)N1[C@@H]3c1cccc(O)c1 (racemic) [Example 194, (3aSR,10RS)-6-Ethoxy-2-{3-[ethyl-(2-hydroxy-ethyl)-amino]-propyl}-10-(3-hydroxy-phenyl)-3a-methyl-3a,4,9,10-tetrahydro-2,9,10a-triaza-cyclopenta[b]fluorene-1,3-dione] | 39.8 to 251
C[C@@]12Cc3c([nH]c4cc(F)c(Cl)cc34)[C@@H](c3cccc(O)c3)N1C(=O)N(CCCN1CC=CCC1)C2=O (racemic) [Example 480, (3aSR,10RS)-6-Chloro-2-[3-(3,6-dihydro-2H-pyridin-1-yl)-propyl]-7-fluoro-10-(3-hydroxy-phenyl)-3a-methyl-3a,4,9,10-tetrahydro-2,9,10a-triaza-cyclopenta[b]fluorene-1,3-dione] | 39.8 to 251
CC(C)NCCN1C(=O)N2[C@H](c3cccc(O)c3)c3[nH]c4cc(F)c(Cl)cc4c3C[C@@]2(C)C1=O (racemic) [Example 339, (3aSR,10RS)-6-Chloro-7-fluoro-10-(3-hydroxy-phenyl)-2-(2-isopropylamino-ethyl)-3a-methyl-3a,4,9,10-tetrahydro-2,9,10a-triaza-cyclopenta[b]fluorene-1,3-dione] | ≤ 39.8
COc1cc2c3c([nH]c2cc1F)[C@@H](c1cccc(O)c1)N1C(=O)N(CCN2CCC(C)CC2)C(=O)[C@]1(C)C3 (racemic) [Example 264, (3aSR,10RS)-7-Fluoro-10-(3-hydroxy-phenyl)-6-methoxy-3a-methyl-2-[2-(4-methyl-piperidin-1-yl)-ethyl]-3a,4,9,10-tetrahydro-2,9,10a-triaza-cyclopenta[b]fluorene-1,3-dione] | 39.8 to 251
CCN(CC)CCCN1C(=O)N2[C@H](c3cccc(O)c3)c3[nH]c4cc(F)c(OC)cc4c3C[C@@]2(C)C1=O (racemic) [Example 313, (3aSR,10RS)-2-(3-Diethylamino-propyl)-7-fluoro-10-(3-hydroxy-phenyl)-6-methoxy-3a-methyl-3a,4,9,10-tetrahydro-2,9,10a-triaza-cyclopenta[b]fluorene-1,3-dione] | 39.8 to 251
COc1ccc2[nH]c3c(c2c1F)C[C@@]1(C)C(=O)N(CCNCC2CC2)C(=O)N1[C@@H]3c1cccc(O)c1 (racemic) [Example 410, (3aSR,10RS)-2-[2-(Cyclopropylmethyl-amino)-ethyl]-5-fluoro-10-(3-hydroxy-phenyl)-6-methoxy-3a-methyl-3a,4,9,10-tetrahydro-2,9,10a-triaza-cyclopenta[b]fluorene-1,3-dione] | 39.8 to 251
CCNCCCN1C(=O)N2[C@H](c3cccc(O)c3)c3[nH]c4cc(F)c(Cl)cc4c3C[C@@]2(C)C1=O (racemic) [Example 457, (3aSR,10RS)-6-Chloro-2-(3-ethylamino-propyl)-7-fluoro-10-(3-hydroxy-phenyl)-3a-methyl-3a,4,9,10-tetrahydro-2,9,10a-triaza-cyclopenta[b]fluorene-1,3-dione] | 39.8 to 251
C=CCNCCN1C(=O)N2[C@H](c3cccc(O)c3)c3[nH]c4cc(F)c(Cl)cc4c3C[C@@]2(C)C1=O (racemic) [Example 346, (3aSR,10RS)-2-(2-Allylamino-ethyl)-6-chloro-7-fluoro-10-(3-hydroxy-phenyl)-3a-methyl-3a,4,9,10-tetrahydro-2,9,10a-triaza-cyclopenta[b]fluorene-1,3-dione] | ≤ 39.8
CCOc1ccc2[nH]c3c(c2c1)C[C@@]1(C)C(=O)N(CCN(C)CCO)C(=O)N1[C@@H]3c1cccc(O)c1 (racemic) [Example 297, (3aSR,10RS)-6-Ethoxy-2-{2-[(2-hydroxy-ethyl)-methyl-amino]-ethyl}-10-(3-hydroxy-phenyl)-3a-methyl-3a,4,9,10-tetrahydro-2,9,10a-triaza-cyclopenta[b]fluorene-1,3-dione] | 39.8 to 251
COc1ccc2[nH]c3c(c2c1)C[C@@]1(C)C(=O)N(CCCNCCO)C(=O)N1[C@@H]3c1cccc(O)c1 [Example 536, (3aS,10R)-2-[3-(2-Hydroxy-ethylamino)-propyl]-10-(3-hydroxy-phenyl)-6-methoxy-3a-methyl-3a,4,9,10-tetrahydro-2,9,10a-triaza-cyclopenta[b]fluorene-1,3-dione] | ≤ 39.8
CN1CCN(CCN2C(=O)N3[C@H](c4cccc(O)c4)c4[nH]c5cc(F)c(Cl)cc5c4C[C@@]3(C)C2=O)CC1 (racemic) [Example 359, (3aSR,10RS)-6-Chloro-7-fluoro-10-(3-hydroxy-phenyl)-3a-methyl-2-[2-(4-methyl-piperazin-1-yl)-ethyl]-3a,4,9,10-tetrahydro-2,9,10a--triaza-cyclopenta[b]fluorene-1,3-dione] | 39.8 to 251
CCNCCN1C(=O)N2[C@H](c3cccc(O)c3)c3[nH]c4ccc(OC(F)F)cc4c3C[C@@]2(C)C1=O (racemic) [Example 284, (3aSR,10RS)-6-(1,1-Difluoro-methoxy)-2-(2-ethylamino-ethyl)-10-(3-hydroxy-phenyl)-3a-methyl-3a,4,9,10-tetrahydro-2,9,10a-triaza-cyclopenta[b]fluorene-1,3-dione] | ≤ 39.8
C#CCNCCCN1C(=O)N2[C@H](c3cccc(O)c3)c3[nH]c4ccc(OC)cc4c3C[C@@]2(C)C1=O [Example 539, (3aS,10R)-10-(3-Hydroxy-phenyl)-6-methoxy-3a-methyl-2-(3-prop-2-ynylamino-propyl)-3a,4,9,10-tetrahydro-2,9,10a-triaza-cyclopenta[b]fluorene-1,3-dione] | ≤ 39.8
